According to US20240374739A1, “BILE ACID CONJUGATE” (Curtin University, priority 2021, published 2024):

Legend:
[1] = test system: Rats subjected to sub-concussion (SC); test: Rotarod test, brain injury (sub-concussion) study (Experimental Example 3); type: in vivo; conditions: at 12 weeks (FIG. 14)
Text: Repeated sub-concussive head impacts are reported to impair psychomotor function. Rats were subjected to sham procedure, sub-concussion (SC) with control diet (AlN93M), SC with probucol, SC with aged garlic extract (AGE), or SC with HA-1 for 12 weeks.
Both rotarod and beam walk tests assess neuromotor function. On beam walk, the higher the slips show the more impairment. On rotarod, the lower the latency indicates the more impairment.

Caspase 3/9 protein = test: Caspase assay; type: cell-based; conditions: OC-1 cells under stressful, toxic conditions (FIG. 31)
Protocol: The caspase assay was carried as per manufacturer's instructions (abcam, NSW, Australia), as described below.
• Collagen coated cover slip • Fixing agent: 4% paraformaldehyde • Permeabilization agent 0.5% of Tween 20 or trition-X 100 diluted in PBS • Blocking: 1% BSA in PBST may also be used. • PBST: 0.1% Tween 20 in PBS • Primary abs (1:500 in PBS) • Secondary abs (1:1000 in PBS) • Hoechst (Nuclear stain)
First day: Fixation, permeabilize, blocking and add a primary antibody to the cells, as described below:
• Start by aspirating culture medium from each well followed by fixation of the cells with 4% Using 4% paraformaldehyde in PBS pH 7.4 for 10 min at room temperature. (Add one ml in each well). • Shake a plate for a few seconds.
0.5% of Tween 20 or trition-X 100 diluted in PBS. […]
• Make coverslips ready to be mounted onto microscope slides. • Take a clean slide and dispense one drop of antifade mounting medium by slowly from the pipette into the slide. • Carefully remove a coverslip from the well and allow excess wash to drip off and place the cells face down onto the slide. • Clear fingernail polish can be used to seal the coverslip and prevent it from drying out. • Visualized slide under microscope. […]

Compound: CC(=O)O[C@@H]1CC[C@@]2(C)[C@H](CC[C@@H]3[C@@H]2CC[C@]2(C)[C@@H]([C@H](C)CCC(=O)Oc4c(C(C)(C)C)cc(SC(C)(C)Sc5cc(C(C)(C)C)c(O)c(C(C)(C)C)c5)cc4C(C)(C)C)CC[C@@H]32)C1 [HA-1, 2,6-di-tert-butyl-4-((2-((3,5-di-tert-butyl-4-hydroxyphenyl)thio)propan-2-yl)thio)phenyl (4R)-4-[(3R,5R,8R,9S,10S,13R,14S,17R)-3-acetoxy-10,13-dimethyl-2,3,4,5,6,7,8,9,11,12,14,15,16,17-tetradecahydro-1H-cyclopenta[a]phenanthren-17-yl]pentanoate]
- rotarod latency (average) [1]: significantly increased the latency
- protection against programmed cell death (caspase-3 activation) / viable cell population (Caspase 3/9 protein): significant protection against programmed cell death
